We go through 19 compounds from patent US20050014810A1, “Use of substituted 2 phenylbenzimidazoles as medicaments” (Boehringer Ingelheim International GmbH, priority 2003, published 2005).

A word on the melting point: it is the temperature of the solid-liquid transition.

Structures can show the parent of a compound that is named as a salt. Bounds are passed on as bounds.

`CC(C)c1ccc2c(c1)CC[C@H]1[C@](C)(Cn3c(-c4cccc(NCC(=O)O)c4)nc4cc(-c5ccccc5)ccc43)CCC[C@]21C`: the melting point came out at 180 °C.
As to `CC(C)c1ccc2c(c1)CC[C@H]1[C@](C)(Cn3c(-c4cccc(NC(=O)C(=O)O)c4)nc4cc(-c5ccccc5)ccc43)CCC[C@]21C`, the melting point is 235 °C.
As for `CC(C)c1ccc2c(c1)CC[C@H]1[C@](C)(Cn3c(-c4cccc(N5CCC(C(=O)O)CC5)c4)nc4cc(-c5ccccc5)ccc43)CCC[C@]21C`, the figure is 166 to 178 °C.
On to `CC(C)c1ccc2c(c1)CC[C@H]1[C@](C)(Cn3c(-c4cccc(NC(=O)CC(=O)O)c4)nc4cc(-c5ccccc5)ccc43)CCC[C@]21C`, for which the melting point fell in the range of 210 to 215 °C.
As for `CC(=O)Nc1cccc(-c2ccc3c(c2)nc(-c2cccc(OCC(=O)O)c2)n3C[C@]2(C)CCC[C@]3(C)c4ccc(C(C)C)cc4CC[C@@H]23)c1`, the figure is 175 °C (dec.); as for `CC(C)c1ccc2c(c1)CC[C@H]1[C@](C)(Cn3c(-c4cc(OCC(=O)O)ccc4N)nc4cc(-c5ccccc5)ccc43)CCC[C@]21C`, > 295 °C (dec.); as for `COc1cc(OCCCC(=O)O)ccc1-c1nc2cc(-c3cccc(C#N)c3)ccc2n1C[C@]1(C)CCC[C@]2(C)c3ccc(C(C)C)cc3CC[C@@H]12`, 185 °C.
As for `CC(C)c1ccc2c(c1)CC[C@H]1[C@](C)(Cn3c(-c4cccc(OCC(=O)O)c4)nc4cc(-c5ccccc5N)ccc43)CCC[C@]21C`, the figure is 186 to 190 °C.
As for `CC(C)c1ccc2c(c1)CC[C@H]1[C@](C)(Cn3c(-c4cccc(OCCCC(=O)O)c4)nc4cc(-c5ccccc5)ccc43)CCC[C@]21C`, the figure is 144 to 151 °C.
For `CC(C)c1ccc2c(c1)CC[C@H]1[C@](C)(Cn3c(-c4cccc(OCC(=O)O)c4)nc4cc(-c5cccc(NS(C)(=O)=O)c5)ccc43)CCC[C@]21C`, the melting point is 166 °C (dec.).
The value for `CC(=O)Nc1ccc(OCC(=O)O)cc1-c1nc2cc(-c3ccccc3)ccc2n1C[C@]1(C)CCC[C@]2(C)c3ccc(C(C)C)cc3CC[C@@H]12` was 179 °C; that for `CC(C)c1ccc2c(c1)CC[C@H]1[C@](C)(Cn3c(-c4cccc(NC(=O)Cc5nnn[nH]5)c4)nc4cc(-c5ccccc5)ccc43)CCC[C@]21C` was 200 °C.
As for `CC(C)c1ccc2c(c1)CC[C@H]1[C@](C)(Cn3c(-c4cccc(OCC(=O)O)c4)nc4cc(-c5cccc(O)c5)ccc43)CCC[C@]21C`, the figure is 238 to 242 °C; as for `COc1cc(OCCCC(=O)O)ccc1-c1nc2cc(/C=C/c3ccccc3)ccc2n1C[C@]1(C)CCC[C@]2(C)c3ccc(C(C)C)cc3CC[C@@H]12`, 59 to 72 °C.
As for `CC(C)c1ccc2c(c1)CC[C@H]1[C@](C)(Cn3c(-c4ccc(CCC(=O)O)cc4)nc4cc(-c5ccccc5)ccc43)CCC[C@]21C`, the figure is 298 to 300 °C.
Turning to `CC(C)c1ccc2c(c1)CC[C@H]1[C@](C)(Cn3c(-c4cccc(OCC(=O)O)c4)nc4cc(-c5cccc(CN6CCOCC6)c5)ccc43)CCC[C@]21C` (as salt: trifluoroacetate), the melting point was 133 °C (dec.).
As for `CC(C)c1ccc2c(c1)CC[C@H]1[C@](C)(Cn3c(-c4cc(OCC(=O)O)ccc4NC(=O)C(F)(F)F)nc4cc(-c5ccccc5)ccc43)CCC[C@]21C`, the figure is 168 to 172 °C; as for `CC(C)c1ccc2c(c1)CC[C@H]1[C@](C)(Cn3c(-c4cccc(OCC(=O)O)c4)nc4cc(-c5cccc(CN(C)C)c5)ccc43)CCC[C@]21C` (as salt: trifluoroacetate), 127 °C.
As for `CC(C)c1ccc2c(c1)CC[C@H]1[C@](C)(Cn3c(-c4cccc(OCC(=O)O)c4)nc4cc(-c5cccc([NH+]([O-])O)c5)ccc43)CCC[C@]21C` (stereo partly shown), the figure is 258 to 262 °C.
